Patent US20170210751A1, “PRMT5 INHIBITORS AND USES THEREOF” (Epizyme, Inc., priority 2014, published 2017)

What follows are compounds tested on Symmetric di-Methyl Arginine in Z-138 cells (assay: Z-138 Methylation Assay (In Cell Western for symmetric di-methyl arginine)). Details: Homo sapiens, 96 hours incubation, symmetric di-methyl arginine normalised to DNA content, read-out: ICW EC50.
Format: cell-based
Excerpt: Z-138 suspension cells were purchased from ATCC (American Type Culture Collection, Manassas, Va.). RPMI/Glutamax medium, penicillin-streptomycin, heat inactivated fetal bovine serum, and D-PBS were purchased from Life Technologies, Grand Island, N.Y., USA. Odyssey blocking buffer, 800CW goat anti-rabbit IgG (H+L) antibody, and Licor Odyssey infrared scanner were purchased from Licor Biosciences, Lincoln, Nebr., USA. Symmetric di-methyl arginine antibody was purchased from EMD Millipore, Billerica, Mass., USA. 16% Paraformaldehyde was purchased from Electron Microscopy Sciences, Hatfield, Pa., USA.
Z-138 suspension cells were maintained in growth medium (RPMI 1640 supplemented with 10% v/v heat inactivated fetal bovine serum and 100 units/mL penicillin-streptomycin) and cultured at 37° C. under 5% CO2.
Cell Treatment, In Cell Western (ICW) for detection of Symmetric di-Methyl Arginine and DNA content.
Z-138 cells were seeded in assay medium at a concentration of 50,000 cells per mL to a 384-well cell culture plate with 50 μL per well. Compound (100 nL) from 384 well source plates was added directly to 384 well cell plate. Plates were incubated at 37° C., 5% CO2 for 96 hours. After four days of incubation, 40 μL of cells from incubated plates were added to poly-D-lysine coated 384 well culture plates (BD Biosciences 356697). Plates were incubated at room temperature for 30 minutes then incubated at 37° C., 5% CO2 for 5 hours. After the incubation, 40 μL per well of 8% paraformaldehyde in PBS (16% paraformaldahyde was diluted to 8% in PBS) was added to each plate and incubated for 30 minutes. Plates were transferred to a Biotek 405 plate washer and washed 5 times with 100 μL per well of wash buffer (IX PBS with 0.1% Triton X-100 (v/v)). Next […] well of Odyssey blocking buffer were added to each plate and incubated 1 hour at room temperature. Blocking buffer was removed and 20 μL per well of primary antibody was added (symmetric di-methyl arginine diluted 1:100 in Odyssey buffer with 0.1% Tween 20 (v/v)) and plates were incubated overnight (16 hours) at 4° C. Plates were washed 5 times with 100 μL per well of wash buffer. Next 20 μL per well of secondary antibody was added (1:200 800CW goat anti-rabbit IgG (H+L) antibody, 1:1000 DRAQ5 (Biostatus limited) in Odyssey buffer with 0.1% Tween 20 (v/v)) and incubated for 1 hour at room temperature. The plates were washed 5 times with 100 μL per well wash buffer then 1 time with 100 μL per well of water. Plates were allowed to dry at room temperature then imaged on the Licor Odyssey machine which measures integrated intensity at 700 nm and 800 nm wavelengths. Both 700 and 800 channels were scanned.
First, the ratio for each well was determined by:
Each plate included fourteen control wells of DMSO only treatment (minimum inhibition) as well as fourteen control wells for maximum inhibition treated with 3 μM of a reference compound (Background wells). The average of the ratio values for each control type was calculated and used to determine the percent inhibition for each test well in the plate. Reference compound was serially diluted three-fold in DMSO for a total of nine test concentrations, beginning at 3 μM. Percent inhibition was determined and IC50 curves were generated using triplicate wells per concentration of compound.

Q: With `CC(=O)N1CCC(Nc2cc(C(=O)NC[C@H](O)CN3CCc4cn[nH]c4C3)ncn2)CC1` [Compound 3-51] as the compound, how does the EC50 read?
A: Its EC50 is greater than 1000 nM.

Q: How did the EC50 turn out when `CC(=O)N1CC(Nc2cc(C(=O)NC[C@H](O)CN3CCc4sccc4C3)ncn2)C1` [Compound 1-2, (S)-6-((1-acetylazetidin-3-yl)amino)-N-(3-(6,7-dihydrothieno[3,2-c]pyridin-5(4H)-yl)-2-hydroxypropyl)pyrimidine-4-carboxamide] was run?
A: The EC50 was less than 100 nM.

Q: `Nc1nc2c(s1)CN(C[C@@H](O)CNC(=O)c1cc(NC3COC3)ncn1)CC2` [Compound 1-23] was tested. Which EC50 did it give?
A: The EC50 was greater than 1000 nM.

Q: For `Cc1nc2c(o1)CCN(C[C@@H](O)CNC(=O)c1cc(NC3COC3)ncn1)C2` [Compound 4-1, (S)—N-(2-hydroxy-3-(2-methyl-6,7-dihydrooxazolo[4,5-c]pyridin-5(4H)-yl)propyl)-6-(oxetan-3-ylamino)pyrimidine-4-carboxamide], which EC50 is on record?
A: Its EC50 is greater than 1000 nM.

Q: How did the EC50 turn out when `O=C(COc1cccc2cccnc12)NCC(O)CN1CCc2ccncc2C1` (stereo not drawn) [Compound 2-8, N-[2-hydroxy-3-(1,2,3,4-tetrahydro-2,7-naphthyridin-2-yl)propyl]-2-(quinolin-8-yloxy)acetamide] was run?
A: The EC50 was greater than 1000 nM.

Q: With `CC(=O)N1CCC(Nc2cc(C(=O)NC[C@H](O)CN3CCc4sc(N)nc4C3)ccn2)CC1` [Compound 1-34] as the compound, how does the EC50 read?
A: Its EC50 is greater than 1000 nM.

Q: For `CC(=O)N1CCC(Nc2cc(C(=O)NC[C@H](O)CN3CCc4nc(C)sc4C3)ncn2)CC1` [Compound 1-7, (S)-6-((1-acetylpiperidin-4-yl)amino)-N-(2-hydroxy-3-(2-methyl-6,7-dihydrothiazolo[5,4-c]pyridin-5(4H)-yl)propyl)pyrimidine-4-carboxamide], which EC50 is on record?
A: Its EC50 is greater than 1000 nM.

Q: Which EC50 does the source give for `CC(=O)N1CC(Nc2cc(C(=O)NC[C@H](O)CN3CCc4oc(C)nc4C3)ncn2)C1` [Compound 4-2, (S)-6-((1-acetylazetidin-3-yl)amino)-N-(2-hydroxy-3-(2-methyl-6,7-dihydrooxazolo[4,5-c]pyridin-5(4H)-yl)propyl)pyrimidine-4-carboxamide] here?
A: The EC50 was greater than 1000 nM.

Q: How did the EC50 turn out when `CC(=O)N1CCC(Nc2cc(C(=O)NC[C@H](O)CN3CCc4cccnc4C3)ccn2)CC1` [Compound 2-21, (S)-2-((1-acetylpiperidin-4-yl)amino)-N-(3-(5,6-dihydro-1,7-naphthyridin-7(8H)-yl)-2-hydroxypropyl)isonicotinamide] was run?
A: Its EC50 is 101 to 1000 nM.

Q: `CC(=O)N1CCC(Nc2cc(C(=O)NC[C@H](O)CN3CCc4cccnc4C3)ncn2)CC1` [Compound 2-11, (S)-6-((1-acetylpiperidin-4-yl)amino)-N-(3-(5,6-dihydro-1,7-naphthyridin-7(8H)-yl)-2-hydroxypropyl)pyrimidine-4-carboxamide] was tested. Which EC50 did it give?
A: The EC50 was 101 to 1000 nM.

Q: How did the EC50 turn out when `CC(=O)N1CCC(Nc2cc(C(=O)NC[C@H](O)CN3CCc4ncn(C)c4C3)ccn2)CC1` [Compound 3-24, (S)-2-((1-acetylpiperidin-4-yl)amino)-N-(2-hydroxy-3-(3-methyl-6,7-dihydro-3H-imidazo[4,5-c]pyridin-5(4H)-yl)propyl)isonicotinamide] was run?
A: Its EC50 is greater than 1000 nM.

Q: How did the EC50 turn out when `CC(=O)N1CCC(Nc2cc(C(=O)NC[C@H](O)CN3CCc4ncsc4C3)ncn2)CC1` [Compound 1-18, (S)-6-((1-acetylpiperidin-4-yl)amino)-N-(3-(6,7-dihydrothiazolo[5,4-c]pyridin-5(4H)-yl)-2-hydroxypropyl)pyrimidine-4-carboxamide] was run?
A: Its EC50 is greater than 1000 nM.

Q: With `CC(=O)N1CC(Nc2cc(C(=O)NC[C@H](O)CN3CCc4sc(N)nc4C3)ncn2)C1` [Compound 1-28] as the compound, how does the EC50 read?
A: The EC50 was greater than 1000 nM.

Q: For `CC(=O)N1CCC(Nc2cc(C(=O)NC[C@H](O)CN3CCc4c(cnn4C)C3)ccn2)CC1` [Compound 3-52], which EC50 is on record?
A: The EC50 was greater than 1000 nM.

Q: With `CC(=O)N1CCC(Nc2cc(C(=O)NC[C@H](O)CN3CCc4nn(C)cc4C3)ccn2)CC1` [Compound 3-53] as the compound, how does the EC50 read?
A: Its EC50 is greater than 1000 nM.

Q: `CC(=O)N1CCC(Nc2cc(C(=O)NC[C@H](O)CN3CCc4cnccc4C3)ncn2)CC1` [Compound 2-17, (S)-6-((1-acetylpiperidin-4-yl)amino)-N-(3-(3,4-dihydro-2,6-naphthyridin-2(1H)-yl)-2-hydroxypropyl)pyrimidine-4-carboxamide] was tested. Which EC50 did it give?
A: Its EC50 is greater than 1000 nM.

Q: For `O=C(NC[C@H](O)CN1CCc2ncccc2C1)c1cc(NC2COC2)ncn1` [Compound 2-12, (S)—N-(3-(7,8-dihydro-1,6-naphthyridin-6(5H)-yl)-2-hydroxypropyl)-6-(oxetan-3-ylamino)pyrimidine-4-carboxamide], which EC50 is on record?
A: Its EC50 is greater than 5000 nM.

Q: How did the EC50 turn out when `CC(=O)N1CC(Nc2cc(C(=O)NC[C@H](O)CN3CCc4cccnc4C3)ncn2)C1` [Compound 2-13] was run?
A: Its EC50 is 101 to 1000 nM.

Q: For `O=C(NC[C@H](O)CN1CCc2[nH]cnc2C1)c1cc(NC2COC2)ncn1` [Compound 3-38, (S)—N-(3-(6,7-dihydro-1H-imidazo[4,5-c]pyridin-5(4H)-yl)-2-hydroxypropyl)-6-(oxetan-3-ylamino)pyrimidine-4-carboxamide], which EC50 is on record?
A: The EC50 was greater than 1000 nM.

Q: With `CC(=O)N1CCC(Nc2cc(C(=O)NC[C@H](O)CN3CCc4cn[nH]c4C3)ccn2)CC1` [Compound 3-50] as the compound, how does the EC50 read?
A: Its EC50 is greater than 1000 nM.

Q: For `CC(=O)N1CC(Nc2cc(C(=O)NC[C@H](O)CN3CCc4[nH]c(C)nc4C3)ncn2)C1` [Compound 3-47], which EC50 is on record?
A: The EC50 was greater than 1000 nM.

Q: Which EC50 does the source give for `CC(=O)N1CC(Nc2cc(C(=O)NC[C@H](O)CN3CCc4ccncc4C3)ncn2)C1` [Compound 2-22] here?
A: Its EC50 is greater than 1000 nM.

Q: For `CC(=O)N1CCC(Nc2cc(C(=O)NC[C@H](O)CN3CCc4[nH]cnc4C3)ccn2)CC1` [Compound 3-36, (S)-2-((1-acetylpiperidin-4-yl)amino)-N-(3-(6,7-dihydro-1H-imidazo[4,5-c]pyridin-5(4H)-yl)-2-hydroxypropyl)isonicotinamide], which EC50 is on record?
A: Its EC50 is greater than 1000 nM.

Q: How did the EC50 turn out when `CC(=O)N1CCC(Nc2cc(C(=O)NC[C@H](O)CN3CCc4scnc4C3)ncn2)CC1` [Compound 1-32] was run?
A: The EC50 was greater than 1000 nM.

Q: For `CC(=O)N1CCC(Nc2cc(C(=O)NC[C@H](O)CN3CCc4scnc4C3)ccn2)CC1` [Compound 1-30], which EC50 is on record?
A: The EC50 was 101 to 1000 nM.

Q: `CC(=O)N1CCC(Nc2cc(C(=O)NC[C@H](O)CN3CCCc4c3cnn4C)ncn2)CC1` [Compound 3-58] was tested. Which EC50 did it give?
A: The EC50 was greater than 1000 nM.

Q: With `CC(=O)N1CCC(Nc2cc(C(=O)NC[C@H](O)CN3CCc4nc(C)[nH]c4C3)ccn2)CC1` [Compound 3-54] as the compound, how does the EC50 read?
A: Its EC50 is greater than 1000 nM.

Q: With `CC(=O)N1CCC(Nc2cc(C(=O)NC[C@H](O)CN3CCc4c(ncn4C)C3)ccn2)CC1` [Compound 3-22, (S)-2-((1-acetylpiperidin-4-yl)amino)-N-(2-hydroxy-3-(1-methyl-6,7-dihydro-1H-imidazo[4,5-c]pyridin-5(4H)-yl)propyl)isonicotinamide] as the compound, how does the EC50 read?
A: Its EC50 is greater than 1000 nM.

Q: For `CC(=O)N1CCC(Nc2cc(C(=O)NC[C@H](O)CN3CCc4nc(N)sc4C3)ccn2)CC1` [Compound 1-35], which EC50 is on record?
A: Its EC50 is greater than 1000 nM.

Q: How did the EC50 turn out when `CC(=O)N1CC(Nc2cc(C(=O)NC[C@H](O)CN3CCc4c(ncn4C)C3)ncn2)C1` [Compound 3-45] was run?
A: The EC50 was greater than 1000 nM.

Q: Which EC50 does the source give for `CC(=O)N1CC(Nc2cc(C(=O)NC[C@H](O)CN3CCCc4c3cnn4C)ncn2)C1` [Compound 3-46] here?
A: Its EC50 is greater than 1000 nM.

Q: `CC(=O)N1CCC(Nc2cc(C(=O)NC[C@H](O)CN3CCc4nc(N)sc4C3)ncn2)CC1` [Compound 1-38] was tested. Which EC50 did it give?
A: The EC50 was greater than 1000 nM.

Q: With `CC(=O)N1CC(Nc2cc(C(=O)NC[C@H](O)CN3CCc4[nH]cnc4C3)ncn2)C1` [Compound 3-33, (S)-6-((1-acetylazetidin-3-yl)amino)-N-(3-(6,7-dihydro-1H-imidazo[4,5-c]pyridin-5(4H)-yl)-2-hydroxypropyl)pyrimidine-4-carboxamide] as the compound, how does the EC50 read?
A: The EC50 was greater than 1000 nM.

Q: For `CC(=O)N1CC(Nc2cc(C(=O)NC[C@H](O)CN3CCc4ncccc4C3)ncn2)C1` [Compound 2-9, (S)-6-((1-acetylazetidin-3-yl)amino)-N-(3-(7,8-dihydro-1,6-naphthyridin-6(5H)-yl)-2-hydroxypropyl)pyrimidine-4-carboxamide], which EC50 is on record?
A: The EC50 was 101 to 1000 nM.

Q: Which EC50 does the source give for `O=C(COc1cccc2cccnc12)NCC(O)CN1CCc2cccnc2C1` (stereo not drawn) [Compound 2-5, N-[2-hydroxy-3-(5,6,7,8-tetrahydro-1,7-naphthyridin-7-yl)propyl]-2-(quinolin-8-yloxy)acetamide] here?
A: Its EC50 is greater than 1000 nM.

Q: Which EC50 does the source give for `O=C(NC[C@H](O)CN1CCc2ncsc2C1)c1cc(NC2COC2)ncn1` [Compound 1-16, (S)—N-(3-(6,7-dihydrothiazolo[5,4-c]pyridin-5(4H)-yl)-2-hydroxypropyl)-6-(oxetan-3-ylamino)pyrimidine-4-carboxamide] here?
A: Its EC50 is greater than 1000 nM.
